Test results: PubChem BioAssay (NCI)
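96-well plates; 48 h exposure; 5 concentrations. Endpoints by linear interpolation between flanking doses. Not reached: highest tested concentration assigned. GI50 is the concentration that inhibits growth by half. TGI: concentration producing complete growth inhibition.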

Experiments:
Assay in all cases: inhibition of tumour cell growth, NCI panel, 48 h
CAKI-1 renal = system: CAKI-1 renal
K-562 leukemia = system: K-562 leukemia
M14 melanoma = system: M14 melanoma
MALME-3M melanoma = system: MALME-3M melanoma
NCI-H226 lung = system: NCI-H226 lung
NCI-H522 lung = system: NCI-H522 lung
NCI/ADR-RES ovarian = system: NCI/ADR-RES ovarian
SF-539 CNS = system: SF-539 CNS
SK-MEL-2 melanoma = system: SK-MEL-2 melanoma
UACC-257 melanoma = system: UACC-257 melanoma

COc1cc2c3c(n(CCCNC(=O)OCC4c5ccccc5-c5ccccc54)c(=O)c2cc1OC)-c1cc2c(cc1C3=O)OCO2
GI50 (CAKI-1 renal): 4.05 µM | TGI (CAKI-1 renal): > 100 µM | GI50 (K-562 leukemia): > 79.4 µM | TGI (K-562 leukemia): > 100 µM | GI50 (M14 melanoma): 36.8 µM | TGI (M14 melanoma): > 100 µM | GI50 (MALME-3M melanoma): 93.3 µM | TGI (MALME-3M melanoma): > 100 µM | GI50 (NCI-H226 lung): > 100 µM | TGI (NCI-H226 lung): > 100 µM | GI50 (NCI-H522 lung): 34.9 µM | TGI (NCI-H522 lung): > 100 µM | GI50 (NCI/ADR-RES ovarian): > 100 µM | TGI (NCI/ADR-RES ovarian): > 100 µM | GI50 (SF-539 CNS): 7.25 µM | TGI (SF-539 CNS): 31.2 µM | GI50 (SK-MEL-2 melanoma): 45.5 µM | TGI (SK-MEL-2 melanoma): > 100 µM | GI50 (UACC-257 melanoma): > 100 µM | TGI (UACC-257 melanoma): > 100 µM

Cc1cc(O)ccc1O
GI50 (CAKI-1 renal): 20.7 µM | TGI (CAKI-1 renal): 57.4 µM | GI50 (K-562 leukemia): 13.8 µM | TGI (K-562 leukemia): 48.1 µM | GI50 (MALME-3M melanoma): 15.8 µM | TGI (MALME-3M melanoma): 31.1 µM | GI50 (NCI-H226 lung): 55.6 µM | TGI (NCI-H226 lung): > 100 µM | GI50 (NCI-H522 lung): 3.58 µM | TGI (NCI-H522 lung): 18.8 µM | GI50 (NCI/ADR-RES ovarian): 23.5 µM | TGI (NCI/ADR-RES ovarian): > 100 µM | GI50 (SF-539 CNS): 15.3 µM | TGI (SF-539 CNS): 29.6 µM | GI50 (SK-MEL-2 melanoma): > 100 µM | TGI (SK-MEL-2 melanoma): > 100 µM | GI50 (UACC-257 melanoma): 43.1 µM | TGI (UACC-257 melanoma): > 100 µM

CS(=O)(=O)Nc1cccc(-c2ccc3c(NC(=O)C4CC4)n[nH]c3c2)c1
GI50 (CAKI-1 renal): > 20.6 µM | TGI (CAKI-1 renal): > 25 µM | GI50 (K-562 leukemia): 0.776 µM | TGI (K-562 leukemia): > 25 µM | GI50 (M14 melanoma): 2.33 µM | TGI (M14 melanoma): > 25 µM | GI50 (MALME-3M melanoma): > 4.93 µM | TGI (MALME-3M melanoma): > 25 µM | GI50 (NCI-H226 lung): 2.59 µM | TGI (NCI-H226 lung): > 25 µM | GI50 (NCI-H522 lung): 0.308 µM | GI50 (NCI/ADR-RES ovarian): 6.45 µM | TGI (NCI/ADR-RES ovarian): > 25 µM | GI50 (SF-539 CNS): 1.5 µM | TGI (SF-539 CNS): > 25 µM | GI50 (SK-MEL-2 melanoma): 1.37 µM | TGI (SK-MEL-2 melanoma): > 25 µM | GI50 (UACC-257 melanoma): > 25 µM | TGI (UACC-257 melanoma): > 25 µM

O=C1CSC(=S)N1Cc1cccnc1
GI50 (CAKI-1 renal): 12.4 µM | TGI (CAKI-1 renal): 33.4 µM | GI50 (K-562 leukemia): 3.75 µM | TGI (K-562 leukemia): > 100 µM | GI50 (M14 melanoma): 15.3 µM | TGI (M14 melanoma): 39.4 µM | GI50 (MALME-3M melanoma): 6.71 µM | TGI (MALME-3M melanoma): 25.6 µM | GI50 (NCI-H226 lung): 42.3 µM | TGI (NCI-H226 lung): > 100 µM | GI50 (NCI-H522 lung): 2.22 µM | TGI (NCI-H522 lung): 5.83 µM | GI50 (NCI/ADR-RES ovarian): 24 µM | TGI (NCI/ADR-RES ovarian): > 100 µM | GI50 (SF-539 CNS): 6.33 µM | TGI (SF-539 CNS): 23.4 µM | GI50 (SK-MEL-2 melanoma): 4.21 µM | TGI (SK-MEL-2 melanoma): 16.5 µM | GI50 (UACC-257 melanoma): 5.97 µM | TGI (UACC-257 melanoma): 21.9 µM

CC(=O)c1c(O)ccc2c(C)c(C(=O)O)oc12
GI50 (CAKI-1 renal): > 100 µM | TGI (CAKI-1 renal): > 100 µM | GI50 (K-562 leukemia): > 100 µM | TGI (K-562 leukemia): > 100 µM | GI50 (M14 melanoma): > 100 µM | TGI (M14 melanoma): > 100 µM | GI50 (MALME-3M melanoma): > 100 µM | TGI (MALME-3M melanoma): > 100 µM | GI50 (NCI-H226 lung): 0.0188 µM | TGI (NCI-H226 lung): 12.2 µM | GI50 (NCI-H522 lung): > 100 µM | TGI (NCI-H522 lung): > 100 µM | GI50 (NCI/ADR-RES ovarian): > 100 µM | TGI (NCI/ADR-RES ovarian): > 100 µM | GI50 (SF-539 CNS): > 100 µM | TGI (SF-539 CNS): > 100 µM | GI50 (UACC-257 melanoma): > 100 µM | TGI (UACC-257 melanoma): > 100 µM

O=c1[nH]ccc2nc(-c3ccc(CN4CCC(c5nc(-c6ccccn6)n[nH]5)CC4)cc3)c(-c3ccccc3)cc12
GI50 (K-562 leukemia): 18.9 µM | TGI (K-562 leukemia): > 100 µM | GI50 (M14 melanoma): 22.2 µM | TGI (M14 melanoma): > 100 µM | GI50 (MALME-3M melanoma): 2.09 µM | TGI (MALME-3M melanoma): 34.7 µM | GI50 (NCI-H226 lung): 19 µM | TGI (NCI-H226 lung): > 100 µM | GI50 (NCI-H522 lung): 22.2 µM | TGI (NCI-H522 lung): > 64.2 µM | GI50 (NCI/ADR-RES ovarian): 36.7 µM | TGI (NCI/ADR-RES ovarian): > 100 µM | GI50 (SF-539 CNS): 4.81 µM | TGI (SF-539 CNS): 20.8 µM | GI50 (SK-MEL-2 melanoma): 14.7 µM | TGI (SK-MEL-2 melanoma): 38 µM | GI50 (UACC-257 melanoma): 14.8 µM | TGI (UACC-257 melanoma): 51.3 µM

CCCCCCCCCCCCCCCCOC(=O)c1c(C)[nH]c(/C=C2\N=C(c3ccc[nH]3)C=C2OC)c1C
GI50 (CAKI-1 renal): 0.212 µM | TGI (CAKI-1 renal): 30.5 µM | GI50 (K-562 leukemia): 0.413 µM | TGI (K-562 leukemia): > 100 µM | GI50 (M14 melanoma): 0.152 µM | TGI (M14 melanoma): 0.452 µM | GI50 (MALME-3M melanoma): 3.67 µM | TGI (MALME-3M melanoma): 29.8 µM | GI50 (NCI-H226 lung): 4.54 µM | TGI (NCI-H226 lung): 15.2 µM | GI50 (NCI-H522 lung): 5.69 µM | TGI (NCI-H522 lung): > 70.1 µM | GI50 (NCI/ADR-RES ovarian): 0.735 µM | TGI (NCI/ADR-RES ovarian): 19.9 µM | GI50 (SF-539 CNS): 2.3 µM | TGI (SF-539 CNS): 13.6 µM | GI50 (SK-MEL-2 melanoma): 0.249 µM | TGI (SK-MEL-2 melanoma): 1.34 µM | GI50 (UACC-257 melanoma): 9.69 µM | TGI (UACC-257 melanoma): > 100 µM
